# Reference: patent US11027155B2, “Method for prevention and treatment of diabetic kidney disease” (priority 2019, dated 2021)
# Entries after “also recorded” stand apart in the source; their conditions may differ.
# Legend:
# [1] = tested on: LPS-Induced Lung Inflammation; conditions: mice; cited from earlier work
# [2] = tested on: eNOS−/−/db/db mice; experiment: Comparison of kidney morphology; assay type: in vivo; conditions: diabetic mice fed 4-MU diet vs control diet
# Text: (§1) The present disclosure describes a new use of HA synthesis inhibitors for the treatment of Diabetic Kidney Disease. To study the effects of HA inhibitors on the development of DKD, our experiments were done by providing the test drug (4-Methylumbelliferone, 4-MU) in the food to one of the best available murine models of diabetic nephropathy, the diabetic and moderately hypertensive endothelial nitric oxide synthase/leptin receptor deficient (eNOS−/−/db/db) mice (Mohan S., et al. Laboratory Investigation. 2008, vol. 88, p. 515-528; Betz B., at al. Nephron Exp Nephrol. 2014, vol. 126, p. 191-195). At 9 weeks old, the double homozygous mutant eNOS/db mice were separated in two similar groups regarding sex, body weight, non-fasting plasma glucose concentrations, and consanguinity. Experimental animals were fed at libitum identical artificial diets formulated by Envigo-Teklad, containing or not 5% of 4-MU sodium salt (Sigma, cat. no. M1508) until 19 weeks of age. Both diets provided 3.5 Kcal/g and contained by weight: 17.7% of protein, 53.7% of carbohydrate, and 7.2% of fat. Diets were kept sealed under vacuum at −20° C. protected from light. Every week, the old food was removed, and animals were provided fresh food pellets.
# [3] = tested on: aortic smooth muscle cell (aSMC); conditions: in vitro; cited from earlier work
# [4] = tested on: renal ischemia-reperfusion injury (IRI); conditions: cited from earlier work
# [5] = tested on: plasma glucose; experiment: Non-fasting plasma glucose (commercial kit EIAGLUC); assay type: in vivo, mice; conditions: 4-MU-treated vs control, end of the experiments (18-week-old)
# Text: At 9 weeks old, the double homozygous mutant eNOS/db mice were separated in two similar groups regarding sex, body weight, non-fasting plasma glucose concentrations, and consanguinity. Experimental animals were fed at libitum identical artificial diets formulated by Envigo-Teklad, containing or not 5% of 4-MU sodium salt (Sigma, cat. no. M1508) until 19 weeks of age. Both diets provided 3.5 Kcal/g and contained by weight: 17.7% of protein, 53.7% of carbohydrate, and 7.2% of fat. Diets were kept sealed under vacuum at -20° C. protected from light. Every week, the old food was removed, and animals were provided fresh food pellets. Plasma glucose levels were measured using a commercial kit ([…], Invitrogen). […] This fact remarks an important difference between our invention and the use of 4-MU to treat autoimmune diabetes.
# [6] = cited from earlier work
# [7] = tested on: malignant tumor cells; conditions: in vitro and animal models of liver, breast, prostate, pancreatic, and renal carcinomas; cited from earlier work
# [8] = tested on: eNOS−/−/db/db mice; experiment: Kidney histopathology (H&E, PAS), semi-quantitative glomerular index; assay type: in vivo
# Text: The present disclosure describes a new use of HA synthesis inhibitors for the treatment of Diabetic Kidney Disease. To study the effects of HA inhibitors on the development of DKD, our experiments were done by providing the test drug (4-Methylumbelliferone, 4-MU) in the food to one of the best available murine models of diabetic nephropathy, the diabetic and moderately hypertensive endothelial nitric oxide synthase/leptin receptor deficient (eNOS−/−/db/db) mice (Mohan S., et al. Laboratory Investigation. 2008, vol. 88, p. 515-528; Betz B., at al. Nephron Exp Nephrol. 2014, vol. 126, p. 191-195). At 9 weeks old, the double homozygous mutant eNOS/db mice were separated in two similar groups regarding sex, body weight, non-fasting plasma glucose concentrations, and consanguinity. Experimental animals were fed at libitum identical artificial diets formulated by Envigo-Teklad, containing or not 5% of 4-MU sodium salt (Sigma, cat. no. M1508) until 19 weeks of age. Both diets provided 3.5 Kcal/g and contained by weight: 17.7% of protein, 53.7% of carbohydrate, and 7.2% of fat. Diets were kept sealed under vacuum at −20° C. protected from light. Every week, the old food was removed, and animals were provided fresh food pellets. Finally, for histopathology analysis kidneys were collected from 4-MU-treated and control mice at the end of the experiment. Organs were fixed in 10% NB formalin for 44 hours, embedded in paraffin, and 3 urn sections were stained with Hematoxylin and Eosin (H&E) or Periodic acid—Schiff (PAS), before being examined following Zhao H J et al. (Zhao H. J., et al. J Am Soc Nephrol. 2006, vol. 17, p. 2664-2669). A semi-quantitative index was used to evaluate the degree of glomerular mesangial expansion and sclerosis. 50 glomeruli on a single section (25 from each kidney) were scored from 0 to 4, where 0 represents no lesions and 1, 2, 3, and 4 represent mesangial matrix expansion or sclerosis involving less than or equal to 25, 26-50, 51-75, or >75% of the glomerular tuft area, respectively. End stage sclerotic glomeruli (glomerulosclerosis) were counted, as well as the number of glomeruli that contained nodules, and the percentage of affected glomeruli within the 50 analyzed. Histopathology staining and analyses were done by an independent service and the specialists were blind regarding the nature of the samples.
# [9] = tested on: hyaluronan; experiment: Serum hyaluronan content in 4-MU fed diabetic nephropathy mice; assay type: in vivo; conditions: 4-MU fed animals, 5% 4-MU sodium salt in diet, after 3 weeks of treatment
# Text: as §1, with “pellets. […] We detected in 4-MU fed animals a reduction of serum hyaluronan content of about 30% after 3 weeks of treatment.” for “pellets.”
# [10] = tested on: type 1 diabetes; conditions: after the onset of autoimmune insulitis, two mice models; cited from earlier work
# [11] = tested on: HA synthesis; conditions: cited from earlier work
# [12] = tested on: C-Reactive Protein; experiment: C-Reactive Protein immunoassay in serum; assay type: in vivo, mice; conditions: 4 weeks after being fed with the special diets
# Text: At 9 weeks old, the double homozygous mutant eNOS/db mice were separated in two similar groups regarding sex, body weight, non-fasting plasma glucose concentrations, and consanguinity. Experimental animals were fed at libitum identical artificial diets formulated by Envigo-Teklad, containing or not 5% of 4-MU sodium salt (Sigma, cat. no. M1508) until 19 weeks of age. Both diets provided 3.5 Kcal/g and contained by weight: 17.7% of protein, 53.7% of carbohydrate, and 7.2% of fat. Diets were kept sealed under vacuum at −20° C. protected from light. Every week, the old food was removed, and animals were provided fresh food pellets. […] C—RP is considering the gold standard marker for inflammation and the lack of differences in this protein between our experimental mice points out that 4-MU is not affecting the development of DKD by crucially changing the inflammatory responses in our diabetic animals but for other mechanism of action.
# [13] = Body weight and appearance monitored weekly in eNOS/db mice; assay type: in vivo
# Text: The present disclosure describes a new use of HA synthesis inhibitors for the treatment of Diabetic Kidney Disease. To study the effects of HA inhibitors on the development of DKD, our experiments were done by providing the test drug (4-Methylumbelliferone, 4-MU) in the food to one of the best available murine models of diabetic nephropathy, the diabetic and moderately hypertensive endothelial nitric oxide synthase/leptin receptor deficient (eNOS−/−/db/db) mice (Mohan S., et al. Laboratory Investigation. 2008, vol. 88, p. 515-528; Betz B., at al. Nephron Exp Nephrol. 2014, vol. 126, p. 191-195).
# At 9 weeks old, the double homozygous mutant eNOS/db mice were separated in two similar groups regarding sex, body weight, non-fasting plasma glucose concentrations, and consanguinity. Experimental animals were fed at libitum identical artificial diets formulated by Envigo-Teklad, containing or not 5% of 4-MU sodium salt (Sigma, cat. no. M1508) until 19 weeks of age. Both diets provided 3.5 Kcal/g and contained by weight: 17.7% of protein, 53.7% of carbohydrate, and 7.2% of fat. Diets were kept sealed under vacuum at −20° C. protected from light. Every week, the old food was removed, and animals were provided fresh food pellets.
# The weight and appearance of the animals was monitored weekly.
# [14] = tested on: eNOS−/−/db/db mice; experiment: Glomerular Filtration Rate by single bolus FITC-inulin in conscious mice; assay type: in vivo
# Text: as §1, with “[…] In our experiments, GFR” for “Diets”, “determined before (week 8)” for “kept sealed under vacuum at −20° C. protected from light. Every week, the old food was removed,”, “after 10 week of treatments (week 18) by a single bolus injection of fluorescein isothiocyanate-(FITC) labeled inulin in conscious mice (Rieg T. J Vis Exp. 2013, May 10: e50330, doi: 10.3791/50330). […]” for “animals were provided fresh food pellets.”
# [15] = tested on: diabetic patients; conditions: cited from earlier work
# [16] = 4-MU-treated vs control, end of the experiment
smiles,measurement,setting,value
"Cc1cc(=O)oc2cc(O)ccc12 [4-MU, 4-Methylumbelliferone]",LPS-Induced Lung Inflammation,[1],can suppress
same,kidney morphology,[2],abnormalities are less pronounced; also recorded: less advanced degree of DKD
same,aSMC apoptosis,[3],induced apoptosis
same,"aSMC proliferation, migration",[3],blocked
same,hyaluronan content in kidneys,[4]; 4-MU treatment,can reduce
same,renal ischemia-reperfusion injury after kidney transplants,[4]; inhibition pre and post-operatively,protective
same,non-fasting plasma glucose levels,[5],No significant difference; also recorded: did not affect
same,metabolism in vivo to 4-MUG and 4-MUS,[6],rapidly metabolized
same,cytostatic / anti-metastatic effect on malignant tumor cells,[7],useful as cytostatic or in preventing metastasis
same,signs of nephritis and tubulitis,"[8]; 4-MU-treated mice, unlike control",did not found signs
same,glomerular injury index,[8]; [16],significant lower
same,nodular glomerulosclerosis,[8]; [16],lower
same,degree of kidney injuries (histopathology summary),[8]; FIG. 8,lower degree of kidney injuries
same,reduction of serum hyaluronan content,[9],about 30%
same,progression to type 1 diabetes,[10],halted progression to type 1 diabetes
same,HA synthesis,[11],selectively inhibited
same,"C-RP values in serum, treated vs untreated",[12],No significant difference; also recorded: not significant differences
same,overall health and survival,[13]; DKD animals,impacted their overall health and survival
same,body weight over time vs control diet,"[13]; eNOS/db mice, 4-MU diet from 9 to 19 weeks of age",keep their body weight for a longer period; also recorded: kept their body weight longer
same,weight loss (final weight divided by maximum reached weight) vs control,"[13]; final stages of the disease, end of the experiments",significant difference in weight loss; also recorded: control diet lost significantly more weight than the mice treated with 4-MU
same,"GFR, initial (week 7-8) vs final (week 18) in treated mice",[14]; after 10 week of treatments,No significant difference; also recorded: kept their GFR values unchanged
same,progression of DKD,[14]; from GFR results,significantly delayed the progression of DKD
Cc1ccc([C@@H]2O[C@H](CO)[C@@H](O)[C@H](O)[C@H]2O)cc1Cc1ccc(-c2ccc(F)cc2)s1 [canagliflozin],vascular and renal effects,[15],vascular and renal protective effects
